These results are taken from article PMC5439667, “Thermal stability and kinetic constants for 129 variants of a family 1 glycoside hydrolase reveal that enzyme activity and stability can be separately designed” (PLoS ONE, 2017).

The structures appear in SMILES notation.

This test deals with BglB (Paenibacillus polymyxa, UniProt P22505). Nature of the test: Michaelis-Menten kinetics of […]-nitrophenol release (as in the previous study). Particulars: wild type, batched replicates re-measured here; conditions of the kinetic assay not printed in the main text. It counts as biochemical.
Chain of BglB (P22505 whole entry): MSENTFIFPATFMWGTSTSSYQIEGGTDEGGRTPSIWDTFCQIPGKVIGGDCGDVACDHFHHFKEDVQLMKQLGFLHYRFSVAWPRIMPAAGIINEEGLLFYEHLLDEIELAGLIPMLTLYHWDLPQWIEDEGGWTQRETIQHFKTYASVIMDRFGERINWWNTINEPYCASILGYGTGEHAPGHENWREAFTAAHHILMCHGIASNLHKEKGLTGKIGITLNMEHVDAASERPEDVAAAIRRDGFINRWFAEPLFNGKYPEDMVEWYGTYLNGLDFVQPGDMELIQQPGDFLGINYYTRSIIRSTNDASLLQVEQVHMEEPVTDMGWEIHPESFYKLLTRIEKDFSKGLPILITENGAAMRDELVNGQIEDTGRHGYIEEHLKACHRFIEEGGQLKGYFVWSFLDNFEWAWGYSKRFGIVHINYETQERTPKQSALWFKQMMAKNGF

For the molecule `O=[N+]([O-])c1ccc(O[C@@H]2O[C@H](CO)[C@@H](O)[C@H](O)[C@H]2O)cc1` [pNPG], the KM entry is given as “batched replicates of the native BglB sequence”.
